One data set concerns the target T1, human GIPR (Homo sapiens, UniProt P48546).
T1 construct: expressed in transfected cells; host or cells: CHO-K1 clonal cell line
T1 sequence (P48546 22-466): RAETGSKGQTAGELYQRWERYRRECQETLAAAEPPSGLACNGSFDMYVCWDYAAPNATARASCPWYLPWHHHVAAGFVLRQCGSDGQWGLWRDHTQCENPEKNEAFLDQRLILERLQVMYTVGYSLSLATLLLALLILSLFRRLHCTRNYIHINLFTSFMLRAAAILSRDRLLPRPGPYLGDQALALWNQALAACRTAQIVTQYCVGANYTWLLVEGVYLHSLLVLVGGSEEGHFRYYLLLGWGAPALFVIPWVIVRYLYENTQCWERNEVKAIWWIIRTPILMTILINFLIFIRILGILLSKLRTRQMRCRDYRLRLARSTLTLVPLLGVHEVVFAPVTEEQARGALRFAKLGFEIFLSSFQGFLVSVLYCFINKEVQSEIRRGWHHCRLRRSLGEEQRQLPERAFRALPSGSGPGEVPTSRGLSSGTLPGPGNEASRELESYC
As to the kind of experiment: cAMP HTRF agonist activity assay in CHO-K1 cells expressing GIPR. Further: 5% FBS, 0.1% Casein. The class given is cell-based. To be noted: read-out: Activity against human GIPR (EC50 nM). Here is the method:
Functional activity was determined in CHO-K1 clonal cell lines expressing GIPR, GLP-1R, and GCGR. […] Each recipient cell (5000 cells/well) was added to an SV 96-well plate (Cisbio, 66PL96025) and incubated with the prepared polypeptide at 37°Cfor 30 min. The resulting increase in intracellular cAMP was quantitatively measured using the cAMP-GS dynamic HTRF assay kit (Cisbio, 62AM4PEJ). Briefly, the intracellular cAMP levels were determined by adding cAMP-d2 conjugate in cell lysis buffer, followed by the antibody anti-cAMP-Eu cryptate (also in cell lysis buffer).
Using the maximum response percentage vs. the added polypeptide concentration, the relative EC50 values were derived through nonlinear regression analysis and fitted to a four-parameter logarithmic equation. For specific data, refer to Tables 7-1 to 7-8 below. […]
For orientation: In TR-FRET formats the signal depends on donor and acceptor labels being close together.

Data set [1] can be described thus: Pharmacokinetics in mice after single intravenous injection. Further details: species or system C57 mice. To be noted: male, C57, mouse, in vivo, iv. Here is the method: Male C57 mice were used as test animals. The target compound was administered via a single intravenous injection, and the pharmacokinetic characteristics of the compound in C57 mice in vivo (plasma) were determined.
Male C57 mice, weighing approximately 25g, aged 4-6 weeks. After preparing the polypeptide compound solution using 1×PBS dissolving solution, the compound was administered intravenously at a dose of 200 nmol/kg, where each compound was administered to 3 animals. Blood samples of 60 µL were collected at 5 min, 15 min, 0.5 h, 1 h, 2 h, 4 h, 6 h, 24 h, 48 h and 72 h after the infusion was completed and transferred to centrifuge tubes containing EDTA-K2 anticoagulant. Whole blood samples were centrifuged at 4000 g for 5 min at 4°C. Plasma was separated and plasma samples were frozen and stored at -80 °C.
Sample pretreatment method: 30 µL of plasma samples was taken, and 120 µL of 0.1% formic acid in methanol containing 1 ng/mL internal standard verapamil was added. The mixture was vortexed for 5 min, and centrifuged at 10000 rpm for 10 min at low temperature. 70 µL of supernatant was taken, and 70 µL of water was added and mixed well. Analysis was performed by LC-MS instrument.
LC-MS analysis method: (1) chromatographic conditions: mobile phases A and B: 0.1% formic acid in water and 0.1% formic acid in acetonitrile, respectively; gradient elution mode; flow rate: 0.5 mL/min; injection volume: 10 µL; chromatographic column: nanomicro Unisil C18aq (4.6 mm × 150 mm, 5 µm); column temperature: 40°C. (2) Mass spectrometry conditions: For mass spectrometry, an electrospray ionization source (ESI), positive ion analysis mode, and multiple reaction monitoring (MRM) scanning mode were used.
For data processing, SCIEX OS (Version 2.1.6) software was used to quantify blood drug concentration data and PKSolver (Version 2.0) software was used to calculate pharmacokinetic parameters.

Turning to `CC[C@H](C)[C@H](NC(=O)[C@H](CO)NC(=O)[C@H](CC(C)C)NC(=O)[C@H](CC(=O)O)NC(=O)[C@H](CO)NC(=O)[C@@H](NC(=O)[C@H](Cc1ccccc1)NC(=O)[C@@H](NC(=O)CNC(=O)[C@H](Cc1c[nH]cn1)NC(=O)C(C)(C)NC(=O)[C@@H](N)Cc1c[nH]cn1)[C@@H](C)O)[C@@H](C)O)C(=O)N[C@@H](CC(C)C)C(=O)N[C@@H](CC(C)C)C(=O)N[C@@H](CCC(=O)O)C(=O)N[C@@H](CCCCNC(=O)COCCOCCNC(=O)COCCOCCNC(=O)CC[C@H](NC(=O)CCCCCCCCCCCCCCCCCCC(=O)O)C(=O)O)C(=O)N[C@@H](CCC(N)=O)C(=O)N[C@@H](C)C(=O)N[C@@H](C)C(=O)NC1(C(=O)N[C@@H](CCC(=O)O)C(=O)N[C@@H](Cc2ccccc2)C(=O)N[C@H](C(=O)N[C@@H](CCC(=O)O)C(=O)N[C@@H](Cc2c[nH]c3ccccc23)C(=O)N[C@@H](CC(C)C)C(=O)N[C@@H](CC(C)C)C(=O)N[C@@H](C)C(=O)N[C@H](CCC(=O)O)C(=O)NCC(=O)N2CCC[C@H]2C(=O)N[C@@H](CO)C(=O)N[C@@H](CO)C(=O)NCC(=O)N[C@@H](C)C(=O)N2CCC[C@H]2C(=O)N2CCC[C@H]2C(=O)N2CCC[C@H]2C(=O)N[C@@H](CO)C(N)=O)C(C)C)CCC1` [Compound 0145], the half-maximal effective concentration (EC50) at human GIPR came out at 0.003 nM. In data set [1], this compound had a clearance of 0.129 mL/min/kg and a half-life of 7.7 h.
As for `CC[C@H](C)[C@H](NC(=O)[C@H](CO)NC(=O)[C@H](Cc1ccc(O)cc1)NC(=O)[C@H](CC(=O)O)NC(=O)[C@H](CO)NC(=O)[C@@H](NC(=O)[C@H](Cc1ccccc1)NC(=O)[C@@H](NC(=O)CNC(=O)[C@H](CCC(N)=O)NC(=O)C(C)(C)NC(=O)[C@@H](N)Cc1c[nH]cn1)[C@@H](C)O)[C@@H](C)O)C(=O)N[C@@H](CC(C)C)C(=O)N[C@@H](CC(C)C)C(=O)N[C@@H](CCC(=O)O)C(=O)N[C@@H](CCCCNC(=O)COCCOCCNC(=O)COCCOCCNC(=O)CC[C@H](NC(=O)CCCCCCCCCCCCCCCCCCC(=O)O)C(=O)O)C(=O)N[C@@H](CCCCN)C(=O)N[C@@H](C)C(=O)N[C@@H](C)C(=O)NC(C)(C)C(=O)N[C@@H](CCC(=O)O)C(=O)N[C@@H](Cc1ccccc1)C(=O)N[C@H](C(=O)N[C@@H](CCC(=O)O)C(=O)N[C@@H](Cc1c[nH]c2ccccc12)C(=O)N[C@@H](CC(C)C)C(=O)N[C@@H](CC(C)C)C(=O)N[C@@H](C)C(=O)NCC(=O)NCC(=O)N1CCC[C@H]1C(=O)N[C@@H](CO)C(=O)N[C@@H](CO)C(=O)NCC(=O)N[C@@H](C)C(=O)N1CCC[C@H]1C(=O)N1CCC[C@H]1C(=O)N1CCC[C@H]1C(=O)N[C@@H](CO)C(N)=O)C(C)C` [Compound 0156], on human GIPR, the EC50 was found to be 0.019 nM.
On the same count and under the same terms, for `CC[C@H](C)[C@H](NC(=O)[C@H](CO)NC(=O)[C@H](Cc1ccc(O)cc1)NC(=O)[C@H](CC(=O)O)NC(=O)[C@H](CO)NC(=O)[C@@H](NC(=O)[C@H](Cc1ccccc1)NC(=O)[C@@H](NC(=O)CNC(=O)[C@H](Cc1c[nH]cn1)NC(=O)C(C)(C)NC(=O)[C@@H](N)Cc1c[nH]cn1)[C@@H](C)O)[C@@H](C)O)C(=O)N[C@@H](CC(C)C)C(=O)N[C@@H](CC(C)C)C(=O)N[C@@H](CCC(=O)O)C(=O)N[C@@H](CCCCNC(=O)COCCOCCNC(=O)COCCOCCNC(=O)CC[C@H](NC(=O)CCCCCCCCCCCCCCCCCCC(=O)O)C(=O)O)C(=O)N[C@@H](CCC(N)=O)C(=O)N[C@@H](C)C(=O)N[C@@H](C)C(=O)NC1(C(=O)N[C@@H](CCC(=O)O)C(=O)N[C@@H](Cc2ccccc2)C(=O)N[C@H](C(=O)N[C@@H](CCC(=O)O)C(=O)N[C@@H](Cc2c[nH]c3ccccc23)C(=O)N[C@@H](CC(C)C)C(=O)N[C@@H](CC(C)C)C(=O)N[C@@H](C)C(=O)N[C@H](CCC(=O)O)C(=O)NCC(=O)N2CCC[C@H]2C(=O)N[C@@H](CO)C(=O)N[C@@H](CO)C(=O)NCC(=O)N[C@@H](C)C(=O)N2CCC[C@H]2C(=O)N2CCC[C@H]2C(=O)N2CCC[C@H]2C(=O)N[C@@H](CO)C(N)=O)C(C)C)CCC1` [Compound 0150] the value was 0.002 nM.
For `CC[C@H](C)[C@H](NC(=O)[C@H](CO)NC(=O)[C@H](CC(C)C)NC(=O)[C@H](CC(=O)O)NC(=O)[C@H](CO)NC(=O)[C@@H](NC(=O)[C@H](Cc1ccccc1)NC(=O)[C@@H](NC(=O)CNC(=O)[C@H](Cc1c[nH]cn1)NC(=O)C(C)(C)NC(=O)[C@@H](N)Cc1c[nH]cn1)[C@@H](C)O)[C@@H](C)O)C(=O)N[C@@H](CC(C)C)C(=O)N[C@@H](CC(C)C)C(=O)N[C@@H](CCC(=O)O)C(=O)N[C@@H](CCCCNC(=O)COCCOCCNC(=O)COCCOCCNC(=O)CC[C@H](NC(=O)CCCCCCCCCCCCCCCCCCC(=O)O)C(=O)O)C(=O)N[C@@H](CCCCN)C(=O)N[C@@H](C)C(=O)N[C@@H](C)C(=O)NC(C)(CC)C(=O)N[C@@H](CCC(=O)O)C(=O)N[C@@H](Cc1ccccc1)C(=O)N[C@H](C(=O)N[C@@H](CCC(=O)O)C(=O)N[C@@H](Cc1c[nH]c2ccccc12)C(=O)N[C@@H](CC(C)C)C(=O)N[C@@H](CC(C)C)C(=O)N[C@@H](C)C(=O)NCC(=O)NCC(=O)N1CCC[C@H]1C(=O)N[C@@H](CO)C(=O)N[C@@H](CO)C(=O)NCC(=O)N[C@@H](C)C(=O)N1CCC[C@H]1C(=O)N1CCC[C@H]1C(=O)N1CCC[C@H]1C(=O)N[C@@H](CO)C(N)=O)C(C)C` (stereo partly shown) [Compound 0136], on human GIPR, the EC50 is 0.001 nM.
The same measure, in the same setting: next, `CC[C@H](C)[C@H](NC(=O)[C@H](CO)NC(=O)[C@H](Cc1ccc(O)cc1)NC(=O)[C@H](CC(=O)O)NC(=O)[C@H](CO)NC(=O)[C@@H](NC(=O)[C@H](Cc1ccccc1)NC(=O)[C@@H](NC(=O)CNC(=O)[C@H](Cc1c[nH]cn1)NC(=O)C(C)(C)NC(=O)[C@@H](N)Cc1c[nH]cn1)[C@@H](C)O)[C@@H](C)O)C(=O)N[C@@H](CC(C)C)C(=O)N[C@@H](CC(C)C)C(=O)N[C@@H](CCC(=O)O)C(=O)N[C@@H](CCCCNC(=O)COCCOCCNC(=O)COCCOCCNC(=O)CC[C@H](NC(=O)CCCCCCCCCCCCCCCCCCC(=O)O)C(=O)O)C(=O)N[C@@H](CCC(N)=O)C(=O)N[C@@H](C)C(=O)N[C@@H](C)C(=O)NC1(C(=O)N[C@@H](CCC(=O)O)C(=O)N[C@@H](Cc2ccccc2)C(=O)N[C@H](C(=O)N[C@@H](CCC(=O)O)C(=O)N[C@@H](Cc2c[nH]c3ccccc23)C(=O)N[C@@H](CC(C)C)C(=O)N[C@@H](CC(C)C)C(=O)N[C@@H](C)C(=O)N[C@H](CCC(=O)O)C(=O)NCC(=O)N2CCC[C@H]2C(=O)N[C@@H](CO)C(=O)N[C@@H](CO)C(=O)NCC(=O)N[C@@H](C)C(=O)N2CCC[C@H]2C(=O)N2CCC[C@H]2C(=O)N2CCC[C@H]2C(=O)N[C@@H](CO)C(N)=O)C(C)C)CC1` [Compound 0149]: 0.004 nM.

One may read the EC50 as the concentration giving half of the maximal effect. As usually defined, the clearance is the rate of elimination divided by the concentration. The term half-life denotes the time in which the quantity being followed falls by half. High values mean slow loss, low ones fast loss.

(Values after patent EP4745153A1, “GLP-1, GIP AND GCG RECEPTOR […] USE THEREOF” (Jiangsu Hengrui Pharmaceuticals Co., Ltd., priority 2023, dated 2025).)
